Legend:
[1] = Particle size and polydispersity index of nanoparticle compositions (Zetasizer Nano ZS); format: physicochemical; settings: Table 1A; for Size (nm): lipid:DSPC:cholesterol:PEG-DMG 50:10:38.5:1.5 mol %
Method in brief: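 Measured in 1×PBS by Zetasizer Nano ZS.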

[2] = Encapsulation efficiency of RNA (QUANT-IT RIBOGREEN RNA assay); format: physicochemical; settings: Table 1A
Method in brief: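 RiboGreen fluorescence (ex ~480, em ~520 nm) compared between intact samples and Triton X-100-lysed samples after 15 min at 37 °C in TE buffer, pH 7.5. Percent free RNA is the blank-corrected intact/disrupted ratio.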

luciferase (Luc) mRNA [3] = experiment: Luc expression, whole body bioluminescence after intravenous administration to mice; format: in vivo; settings: for Total Flux 3 hours / Total Flux 6 hours / Total Flux 24 hours / flux at all timepoints measured: mice, i.v., 0.5 mg/kg; for Total Flux 3 hours / Total Flux 6 hours / Total Flux 24 hours: Luc mRNA; for flux at all timepoints measured: 3, 6 and 24 hour, in words; for Lipid/MC3 AUC / AUC (p/s * h): Table 3D, intravenous
Method in brief: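 Bioluminescence, read as region-of-interest total flux at 3, 6 and 24 h, followed a single 0.5 mg/kg intravenous dose of Luc mRNA-loaded nanoparticles in mice (n=6). Luciferin substrate (200 μL, 15 mg/mL in PBS) was injected intraperitoneally into CD-1 mice 15 minutes ahead of each imaging point.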

luciferase (Luc) mRNA [4] = experiment: Luc expression (total flux) after intramuscular administration; format: in vivo, mice; settings: 6 hours after intramuscular administration, Luc mRNA and H10 mRNA
Description: In order to monitor how effectively various nanoparticle compositions deliver therapeutic and/or prophylactics to targeted cells, different nanoparticle compositions including a particular therapeutic and/or prophylactic (for example, a modified or naturally occurring RNA such as an mRNA) are prepared and administered to rodent populations. Mice are intravenously, intramuscularly, intraarterially, or intratumorally administered a single dose including a nanoparticle composition with a formulation such as those provided in Example 3. In some instances, mice may be made to inhale doses. Dose sizes may range from 0.001 mg/kg to 10 mg/kg, where 10 mg/kg describes a dose including 10 mg of a therapeutic and/or prophylactic in a nanoparticle composition for each 1 kg of body mass of the mouse. A control composition including PBS may also be employed.
Sample formulations including both modified luciferase (Luc) mRNA and H10 mRNA were prepared and administered intramuscularly and the resulting expression and immunogenicity were evaluated simultaneously. Formulations including compounds according to Formula (I), (IA), (IB), (II), (IIa), (IIb), (IIc), (IId), (IIe), (IIf), (IIg), (III), (VI), (VI-a), (VII), (VIII), (VIIa), (VIIIa), (VIIIb), (VIIb-1), (VIIb-2), (VIIb-3), (VIIc), (VIId), (VIIIc), or (VIIId) were prepared and administered at doses of 0.001 and 0.01 mpk (e.g., doses of 0.0005 mpk of a formulation including Luc mRNA and a formulation including H10 mRNA or doses of 0.005 mpk of a formulation including Luc mRNA and a formulation including H10 mRNA).
Sample formulations including modified luciferase (Luc) mRNA prepared and administered intramuscularly and the resulting expression and immunogenicity were evaluated simultaneously. Formulations including compounds according to Formula (I), (IA), (IB), (II), (IIa), (IIb), (IIc), (IId), (IIe), (IIf), (IIg), (III), (VI), (VI-a), (VII), (VIII), (VIIa), (VIIIa), (VIIIb), (VIIb-1), (VIIb-2), (VIIb-3), (VIIc), (VIId), (VIIIc), or (VIIId) were prepared and administered at dose of and 0.01 mpk.

luciferase (Luc) mRNA [5] = experiment: Luc expression in liver, lung, spleen and femur 6 hours after intravenous administration; format: in vivo; settings: mice, intravenous, 0.5 mpk
Method in brief: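 LNP-formulated mRNA given IV to mice (n=3) at 0.5 mpk; at 6 h, bioluminescence imaged ex vivo 15 min after IP D-luciferin (15 mg/mL, 200 μL), organs imaged within 25 min. Values are total flux by region of interest.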

[6] = Apparent (surface) pKa of the LNP formulation (TNS assay); format: physicochemical; settings: Table 1A
Method in brief: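 Fluorescence of TNS probe added to LNP samples (mRNA 0.04 mg/mL) was read across 21 buffers of pH about 3-12, triplicate per pH. The inflection point of the sigmoidal fluorescence-vs-pH curve, […], gives apparent pKa; method validated in 1× PBS and Tris/sucrose buffer.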

With `CCCCCCCCCOC(=O)CCCCCCCN(CCO)CCCCCCCC(=O)OC(CCCC)CCCC` [Compound 57, nonan-5-yl 8-((2-hydroxyethyl)(8-(nonyloxy)-8-oxooctyl)amino) octanoate] the PDI [1] was 0.16, the “Size (nm)” value [1] was 128.4 nm and the “EE (%)” value [2] was 94.33%. For the same compound, the “Fold increase in total body Luc Flux relative to MC3 at 6 h” value (luciferase (Luc) mRNA [3]; Table 3A, i.v. administration) was 0.00056, the “Total Flux 3 hours” value (luciferase (Luc) mRNA [3]) was 6.69E+06 and the “Total Flux 6 hours” value (luciferase (Luc) mRNA [3]) was 6.21E+06. For the same compound, the “Total Flux 24 hours” value (luciferase (Luc) mRNA [3]) was 4.16E+05, the “flux at all timepoints measured” value (luciferase (Luc) mRNA [3]) was “significantly lower flux” and the “Total flux, 0.001 mpk Dose” value (luciferase (Luc) mRNA [4]; 0.001 mpk) was 1.16E+05 p/s. For the same compound, the “Total flux, 0.01 mpk Dose” value (luciferase (Luc) mRNA [4]; 0.01 mpk) was 2.23E+05 p/s, the “Total Flux Liver” value (luciferase (Luc) mRNA [5]) was 9.36E+05 and the “Total Flux Lung” value (luciferase (Luc) mRNA [5]) was 3.18E+04. The “Total Flux Spleen” value (luciferase (Luc) mRNA [5]) was 2.47E+06.
With `CCCCCCCCC(CCCCCCCC)OC(=O)CCCCCCCN(CCO)CCCCCC(=O)N(C)CCCCCCCC` [Compound 146, Heptadecan-9-yl 8-((2-hydroxyethyl)(6-(methyl(octyl)amino)-6-oxohexyl)amino)octanoate] the PDI [1] was 0.210, the “Size (nm)” value [1] was 97.0 nm and the “EE (%)” value [2] was 91.94%. The pKa [6] was 7.78, the “6 h Lipid/MC3 Avg. Luc Expression” value (luciferase (Luc) mRNA [3]; Table 3C, i.v. administration) was 0.011 and the “Fold increase AUC Lipid/MC3” value (luciferase (Luc) mRNA [3]; Table 3C, i.v. administration) was 0.013. The “AUC (h * p/s)” value (luciferase (Luc) mRNA [3]; Table 3C, i.v. administration, Luc) was 1.04E+09 h * p/s, the “Total Flux 3 hours” value (luciferase (Luc) mRNA [3]) was 9.48E+07 and the “Total Flux 6 hours” value (luciferase (Luc) mRNA [3]) was 8.39E+07. The “Total Flux 24 hours” value (luciferase (Luc) mRNA [3]) was 2.30E+06, the “Total Flux Liver” value (luciferase (Luc) mRNA [5]) was 7.24E+06 and the “Total Flux Lung” value (luciferase (Luc) mRNA [5]) was 3.88E+06. The “Total Flux Spleen” value (luciferase (Luc) mRNA [5]) was 5.11E+07.
With `CCCCCCCCC(CCCCCCCC)OC(=O)CCCCCCCN(C)CCCCCCCCCC(=O)OCCCCCCC` [Compound 149, Heptyl 10-((8-(heptadecan-9-yloxy)-8-oxooctyl)(methyl)amino)decanoate] the PDI [1] was 0.110, the “Size (nm)” value [1] was 62.1 nm and the “EE (%)” value [2] was 98.00%. For the same compound, the pKa [6] was 6.284, the “Lipid/MC3 AUC” value (luciferase (Luc) mRNA [3]) was 0.55 and the “AUC (p/s * h)” value (luciferase (Luc) mRNA [3]; Luc) was 1.057E+011 p/s * h. The “Total Flux 3 hours” value (luciferase (Luc) mRNA [3]) was 1.01E+10, the “Total Flux 6 hours” value (luciferase (Luc) mRNA [3]) was 8.33E+09 and the “Total Flux 24 hours” value (luciferase (Luc) mRNA [3]) was 3.45E+08. For the same compound, the “Total Flux Liver” value (luciferase (Luc) mRNA [5]) was 1.11E+09, the “Total Flux Lung” value (luciferase (Luc) mRNA [5]) was 2.69E+06 and the “Total Flux Spleen” value (luciferase (Luc) mRNA [5]) was 2.71E+07.
With `CCCCCCCCCOC(=O)CCCCCCCN(CCO)CCCCCCC/C=C\C(CCCCCCCC)CCCCCCCC` [Compound 152, Nonyl (Z)-8-((2-hydroxyethyl)(10-octyloctadec-8-en-1-yl)amino)octanoate] the PDI [1] was 0.072, the “Size (nm)” value [1] was 62.6 nm and the “EE (%)” value [2] was 99.29%. The pKa [6] was 6.465, the “Lipid/MC3 AUC” value (luciferase (Luc) mRNA [3]) was 0.15 and the “AUC (p/s * h)” value (luciferase (Luc) mRNA [3]; Luc) was 2.855E+010 p/s * h. The “Total Flux 3 hours” value (luciferase (Luc) mRNA [3]) was 1.56E+09, the “Total Flux 6 hours” value (luciferase (Luc) mRNA [3]) was 2.45E+09 and the “Total Flux 24 hours” value (luciferase (Luc) mRNA [3]) was 4.95E+07. The “Total Flux Liver” value (luciferase (Luc) mRNA [5]) was 1.43E+08, the “Total Flux Lung” value (luciferase (Luc) mRNA [5]) was 3.16E+05 and the “Total Flux Spleen” value (luciferase (Luc) mRNA [5]) was 6.63E+06.
For `CCCCCCCCCOC(=O)CCCCCCCN(CCCCCCCC(=O)OC(CCCCCCCC)CCCCCCCC)CCOCCO` [Compound 154, Heptadecan-9-yl 8-((2-(2-hydroxyethoxy)ethyl)(8-(nonyloxy)-8-oxooctylamino octanoate], the PDI [1] was 0.110, the “Size (nm)” value [1] was 92.9 nm and the “EE (%)” value [2] was 94.28%. For the same compound, the pKa [6] was 6.827, the “Lipid/MC3 AUC” value (luciferase (Luc) mRNA [3]) was 0.29 and the “AUC (p/s * h)” value (luciferase (Luc) mRNA [3]; Luc) was 5.560E+010 p/s * h. The “Total Flux 3 hours” value (luciferase (Luc) mRNA [3]) was 2.49E+09, the “Total Flux 6 hours” value (luciferase (Luc) mRNA [3]) was 4.89E+09 and the “Total Flux 24 hours” value (luciferase (Luc) mRNA [3]) was 6.26E+07. For the same compound, the “Total Flux Liver” value (luciferase (Luc) mRNA [5]) was 3.62E+08, the “Total Flux Lung” value (luciferase (Luc) mRNA [5]) was 2.89E+06 and the “Total Flux Spleen” value (luciferase (Luc) mRNA [5]) was 1.30E+07.
For `CCCCCCCCC(CCCCCCCC)OC(=O)CCCCCCCN(CCO)CCCCCCCC(=O)OC(C)(C)C` [Compound 155, tert-Butyl 8-((8-(heptadecan-9-yloxy)-8-oxooctyl)(2-hydroxyethyl)amino)octanoate], the PDI [1] was 0.240, the “Size (nm)” value [1] was 208.3 nm and the “EE (%)” value [2] was 37.36%. For the same compound, the pKa [6] was 6.576, the “Lipid/MC3 AUC” value (luciferase (Luc) mRNA [3]) was 0.66 and the “AUC (p/s * h)” value (luciferase (Luc) mRNA [3]; Luc) was 1.266E+011 p/s * h. The “Total Flux 3 hours” value (luciferase (Luc) mRNA [3]) was 2.49E+09, the “Total Flux 6 hours” value (luciferase (Luc) mRNA [3]) was 1.15E+10 and the “Total Flux 24 hours” value (luciferase (Luc) mRNA [3]) was 1.99E+08. For the same compound, the “Total Flux Liver” value (luciferase (Luc) mRNA [5]) was 8.58E+08, the “Total Flux Lung” value (luciferase (Luc) mRNA [5]) was 1.00E+07 and the “Total Flux Spleen” value (luciferase (Luc) mRNA [5]) was 2.77E+08.
For `CCCCCCCCCOC(=O)CCCCCCCN(CCO)CCCCCCCC(=O)OC(C)(C)C` [Compound 158, tert-Butyl 8-((2-hydroxyethyl)(8-(nonyloxy)-8-oxooctyl)amino)octanoate], the PDI [1] was 0.080, the “Size (nm)” value [1] was 251.8 nm and the “EE (%)” value [2] was 35.70%. The pKa [6] was 6.953, the “Lipid/MC3 AUC” value (luciferase (Luc) mRNA [3]) was <0.01 and the “AUC (p/s * h)” value (luciferase (Luc) mRNA [3]; Luc) was 1.211E+007 p/s * h. The “Total Flux 3 hours” value (luciferase (Luc) mRNA [3]) was 2.69E+05, the “Total Flux 6 hours” value (luciferase (Luc) mRNA [3]) was 9.82E+05 and the “Total Flux 24 hours” value (luciferase (Luc) mRNA [3]) was 1.55E+05. The “flux at all timepoints measured” value (luciferase (Luc) mRNA [3]) was “significantly lower flux”, the “Total Flux Liver” value (luciferase (Luc) mRNA [5]) was 1.99E+05 and the “Total Flux Lung” value (luciferase (Luc) mRNA [5]) was 1.71E+04. For the same compound, the “Total Flux Spleen” value (luciferase (Luc) mRNA [5]) was 1.17E+05.
In the case of `CCCCCCCCCOC(=O)CCCCCCCN(CCO)CCN(CCO)CCCCCCCC(=O)OC(CCCCCCCC)CCCCCCCC` [Compound 159, Heptadecan-9-yl 8-((2-hydroxyethyl)(2-((2-hydroxyethyl)(8-(nonyloxy)-8-oxooctyl)amino)ethyl)amino)octanoate], the PDI [1] is reported as 0.190, the “Size (nm)” value [1] is reported as 75.9 nm and the “EE (%)” value [2] is reported as 99.29%. For the same compound, the pKa [6] was 7.873, the “Lipid/MC3 AUC” value (luciferase (Luc) mRNA [3]) was <0.01 and the “AUC (p/s * h)” value (luciferase (Luc) mRNA [3]; Luc) was 1.355E+008 p/s * h. The “Total Flux 3 hours” value (luciferase (Luc) mRNA [3]) was 3.32E+06, the “Total Flux 6 hours” value (luciferase (Luc) mRNA [3]) was 1.20E+07 and the “Total Flux 24 hours” value (luciferase (Luc) mRNA [3]) was 4.98E+05. For the same compound, the “Total Flux Liver” value (luciferase (Luc) mRNA [5]) was 1.13E+06, the “Total Flux Lung” value (luciferase (Luc) mRNA [5]) was 2.17E+05 and the “Total Flux Spleen” value (luciferase (Luc) mRNA [5]) was 7.24E+05.
